From ChEMBL document CHEMBL1201862, “PubChem BioAssay data set” (2004)
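Method: 48-hour compound exposure of cells in 96-well plates, five concentrations, linear interpolation of endpoints. GI50: concentration for 50% inhibition of growth.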 Activity calls are given as the source filed them. Rule as the data show it: active = GI50 up to about 1.1 µM and inactive = higher.

How the values were obtained:
Experiment in all cases: NCI tumour cell line growth inhibition, 48 h
U-251 = system: U-251
IGROV-1 = system: IGROV-1
HCT-15 = system: HCT-15
A498 = system: A498
NCI-H226 = system: NCI-H226
SN12C = system: SN12C
EKVX = system: EKVX
TK-10 = system: TK-10
T47D = system: T47D
SK-OV-3 = system: SK-OV-3
Malme-3M = system: Malme-3M
DU-145 = system: DU-145
MDA-MB-231 = system: MDA-MB-231
786-0 = system: 786-0
HCC 2998 = system: HCC 2998
SNB-19 = system: SNB-19
PC-3 = system: PC-3
UO-31 = system: UO-31
Hs-578T = system: Hs-578T
HL-60 = system: HL-60

Row | Structure (SMILES) | GI50 (U-251) | GI50 (IGROV-1) | GI50 (HCT-15) [µM] | GI50 (A498) | GI50 (NCI-H226) | GI50 (SN12C) | GI50 (EKVX) | GI50 (TK-10) | GI50 (T47D) | GI50 (SK-OV-3) | GI50 (Malme-3M) | GI50 (DU-145) | GI50 (MDA-MB-231) | GI50 (786-0) | GI50 (HCC 2998) | GI50 (SNB-19) | GI50 (PC-3) | GI50 (UO-31) | GI50 (Hs-578T) | GI50 (HL-60)
1 | N#CC(C(=O)c1ccccc1F)c1nc2cc(C(F)(F)F)ccc2s1 (stereo not drawn) | 26.7 µM (inactive) | 36.3 µM (inactive) | 20.1 | 14 µM (inactive) | 33.2 µM (inactive) | 23.1 µM (inactive) | 22.4 µM (inactive) | 30.8 µM (inactive) | 25.9 µM (inactive) | 27 µM (inactive) | 19.6 µM (inactive) | 28.3 µM (inactive) | 31 µM (inactive) | 19.6 µM (inactive) | – | – | – | – | – | –
2 | CCOC(=O)/C(=C\NCc1ccc2c(c1)OCO2)c1nc2ccccc2[nH]1 | 82 µM (inactive) | 40.3 µM (inactive) | 44.9 | > 100 µM (inactive) | > 100 µM (inactive) | > 100 µM (inactive) | > 100 µM (inactive) | 22.8 µM (inactive) | 35.9 µM (inactive) | > 100 µM (inactive) | 41.7 µM (inactive) | > 100 µM (inactive) | – | 36.9 µM (inactive) | 42.7 µM (inactive) | 46.9 µM (inactive) | 50 µM (inactive) | 79.4 µM (inactive) | 56.8 µM (inactive) | 48.8 µM (inactive)
3 | COC(=O)C1c2cc3c(c(O)c2CCC1(C)O)C(=O)c1c(O)cc2c(c1C3=O)OC1OC2(C)C(O)C(N(C)C)C1O (stereo not drawn) | 0.436 µM (active) | 1.02 µM (active) | 0.394 | – | 0.0112 µM (active) | 0.543 µM (active) | 0.146 µM (active) | 0.369 µM (active) | 0.274 µM (active) | 1.91 µM (inactive) | 0.162 µM (active) | 0.139 µM (active) | 0.207 µM (active) | 1.03 µM (active) | – | 0.221 µM (active) | 0.474 µM (active) | 1.4 µM (inactive) | 0.338 µM (active) | 1.36 µM (inactive)
4 | COC1=N[C@H](C(C)C)C(OC)=N[C@H]1Cc1ccc(C[C@@H]2N=C(OC)[C@@H](C(C)C)N=C2OC)s1 | 24 µM (inactive) | > 100 µM (inactive) | 46.1 | – | – | 43.3 µM (inactive) | 24.8 µM (inactive) | > 100 µM (inactive) | 13.5 µM (inactive) | > 100 µM (inactive) | 22.6 µM (inactive) | 33.2 µM (inactive) | 27.6 µM (inactive) | 45.6 µM (inactive) | 34.2 µM (inactive) | 54.5 µM (inactive) | 21.3 µM (inactive) | 45.4 µM (inactive) | 88.3 µM (inactive) | –
5 | CCOC(=O)CSc1[nH]c2nc(C)nc(Cl)c2c1C#N | – | > 10 µM (inactive) | > 10 | – | – | > 10 µM (inactive) | > 10 µM (inactive) | > 10 µM (inactive) | > 10 µM (inactive) | > 10 µM (inactive) | > 10 µM (inactive) | > 10 µM (inactive) | > 10 µM (inactive) | > 10 µM (inactive) | > 10 µM (inactive) | – | > 10 µM (inactive) | – | – | > 10 µM (inactive)
6 | O=C(CO)CC(=O)C(=O)Nc1nc([N+](=O)[O-])cs1 | > 100 µM (inactive) | > 100 µM (inactive) | > 100 | > 100 µM (inactive) | > 100 µM (inactive) | > 100 µM (inactive) | > 100 µM (inactive) | > 100 µM (inactive) | – | > 100 µM (inactive) | > 100 µM (inactive) | – | – | > 100 µM (inactive) | > 100 µM (inactive) | > 100 µM (inactive) | – | > 100 µM (inactive) | – | > 100 µM (inactive)
7 | COc1ccc(/C=N/CCC/N=C/c2ccc(OC)cc2O)c(O)c1 | 40.6 µM (inactive) | 43.4 µM (inactive) | 37.5 | > 100 µM (inactive) | 16.7 µM (inactive) | 26.1 µM (inactive) | 29.3 µM (inactive) | > 100 µM (inactive) | – | – | 23.8 µM (inactive) | 37.8 µM (inactive) | 38.7 µM (inactive) | 76.6 µM (inactive) | – | 47 µM (inactive) | 42 µM (inactive) | 46 µM (inactive) | 22 µM (inactive) | 39.9 µM (inactive)
8 | O=C(/C=C/c1ccccc1Cl)NC1C=Nc2ccc([N+](=O)[O-])cc2NC1 (stereo not drawn) | 35.3 µM (inactive) | 88.7 µM (inactive) | 35.9 | > 100 µM (inactive) | > 100 µM (inactive) | 98.6 µM (inactive) | > 100 µM (inactive) | > 100 µM (inactive) | – | > 100 µM (inactive) | > 100 µM (inactive) | – | – | 44.8 µM (inactive) | > 100 µM (inactive) | > 100 µM (inactive) | – | 24.4 µM (inactive) | – | 49.2 µM (inactive)
9 | O=C(Nc1ccc(N2C(=O)CSC2c2ccccc2O)cc1)c1ccc(N2C(=O)CSC2c2ccccc2O)cc1 (stereo not drawn) | 34 µM (inactive) | > 100 µM (inactive) | > 100 | – | – | > 100 µM (inactive) | 79.4 µM (inactive) | 74 µM (inactive) | 43.3 µM (inactive) | 23 µM (inactive) | 98.4 µM (inactive) | > 100 µM (inactive) | 44 µM (inactive) | 43.7 µM (inactive) | > 100 µM (inactive) | 31.4 µM (inactive) | 43.3 µM (inactive) | 54.5 µM (inactive) | 71.9 µM (inactive) | –
10 | O=[N+]([O-])c1ccc(Cl)c2c([N+](=O)[O-])cccc12 | – | 8.02 µM (inactive) | 2.77 | – | – | 4.56 µM (inactive) | > 10 µM (inactive) | 9.57 µM (inactive) | 4.22 µM (inactive) | 2.28 µM (inactive) | 5.82 µM (inactive) | – | – | 3.14 µM (inactive) | > 10 µM (inactive) | 8.51 µM (inactive) | 7.85 µM (inactive) | – | – | 2.48 µM (inactive)
11 | COC([C@@H](OC(=O)c1ccccc1)[C@H](OC(=O)c1ccccc1)C(O)COC(=O)c1ccccc1)n1cc(C)c(=O)[nH]c1=O (stereo partly drawn) | 14.5 µM (inactive) | 31.4 µM (inactive) | 27 | – | 20.8 µM (inactive) | 43.2 µM (inactive) | 26.1 µM (inactive) | 33.8 µM (inactive) | 11.6 µM (inactive) | 40.6 µM (inactive) | 23.6 µM (inactive) | 44.5 µM (inactive) | 40.6 µM (inactive) | 26.2 µM (inactive) | – | 22.2 µM (inactive) | 4.83 µM (inactive) | 25.5 µM (inactive) | 28.4 µM (inactive) | –
12 | Cc1ccc(NC(=O)C(=O)C(C(=O)c2ccc3ccccc3c2)C2OC(=O)c3ccccc32)cc1C (stereo not drawn) | 3.92 µM (inactive) | 18.7 µM (inactive) | 5.02 | 10.4 µM (inactive) | 3.14 µM (inactive) | 18.9 µM (inactive) | 63.5 µM (inactive) | 34.8 µM (inactive) | – | 26.9 µM (inactive) | 12.7 µM (inactive) | – | – | 10 µM (inactive) | 2.77 µM (inactive) | 5.31 µM (inactive) | – | 11.9 µM (inactive) | – | 8.87 µM (inactive)
13 | CN(C)C1(N(C)C)Oc2c(c(=O)n(C)c(=O)n2C)C(c2ccc(C(F)(F)F)cc2)C1(F)F (stereo not drawn) | > 100 µM (inactive) | – | > 100 | > 100 µM (inactive) | > 100 µM (inactive) | – | > 100 µM (inactive) | > 100 µM (inactive) | > 100 µM (inactive) | > 100 µM (inactive) | – | > 100 µM (inactive) | > 100 µM (inactive) | > 100 µM (inactive) | > 100 µM (inactive) | > 100 µM (inactive) | > 100 µM (inactive) | > 100 µM (inactive) | – | –
14 | NC(=S)NS(=O)(=O)c1ccc(F)cc1 | > 100 µM (inactive) | > 100 µM (inactive) | > 100 | – | > 100 µM (inactive) | > 100 µM (inactive) | > 100 µM (inactive) | > 100 µM (inactive) | > 100 µM (inactive) | > 100 µM (inactive) | > 100 µM (inactive) | > 100 µM (inactive) | > 100 µM (inactive) | > 100 µM (inactive) | > 100 µM (inactive) | > 100 µM (inactive) | > 100 µM (inactive) | – | > 100 µM (inactive) | > 100 µM (inactive)
15 | CC(=O)[O-].Cc1ncc(CO)c(/C=N/NC(N)=S)c1[O-].[Zn+2] | > 100 µM (inactive) | > 100 µM (inactive) | > 100 | > 100 µM (inactive) | > 100 µM (inactive) | > 100 µM (inactive) | > 100 µM (inactive) | > 100 µM (inactive) | – | > 100 µM (inactive) | > 100 µM (inactive) | – | – | > 100 µM (inactive) | > 100 µM (inactive) | > 100 µM (inactive) | – | > 100 µM (inactive) | – | > 100 µM (inactive)
16 | CCc1oc2ccc(OC)c3c2c1C=CC=C3 | > 100 µM (inactive) | > 100 µM (inactive) | > 100 | > 100 µM (inactive) | > 100 µM (inactive) | > 100 µM (inactive) | > 100 µM (inactive) | > 100 µM (inactive) | – | > 100 µM (inactive) | > 100 µM (inactive) | – | – | > 100 µM (inactive) | > 100 µM (inactive) | > 100 µM (inactive) | – | 21.9 µM (inactive) | – | 87.7 µM (inactive)
17 | Cc1ccc2c(c1)NC(c1ccc(C(=O)O)cc1)c1cccn1-2 (stereo not drawn) | 30.9 µM (inactive) | – | > 100 | 22.9 µM (inactive) | > 100 µM (inactive) | 69.7 µM (inactive) | 22.1 µM (inactive) | 30.8 µM (inactive) | 13.7 µM (inactive) | 22.4 µM (inactive) | – | 26 µM (inactive) | 37.2 µM (inactive) | 19.3 µM (inactive) | – | 22.4 µM (inactive) | 32.7 µM (inactive) | – | – | –
18 | Cc1cccc2c1C/C(=C1\CCc3c(C)cccc31)C2=O | > 100 µM (inactive) | > 100 µM (inactive) | > 100 | > 100 µM (inactive) | > 100 µM (inactive) | > 100 µM (inactive) | > 100 µM (inactive) | > 100 µM (inactive) | – | > 100 µM (inactive) | > 100 µM (inactive) | – | – | 90.4 µM (inactive) | > 100 µM (inactive) | > 100 µM (inactive) | – | > 100 µM (inactive) | – | > 100 µM (inactive)
